What was measured:
[1] = test system: Zucker diabetic fatty (ZDF) rat; assay: Renal function: urinary albumin and total protein excretion, kidney weights (Example 1); assay type: in vivo
Procedure: All animal studies were carried out in compliance with policies outlined in The Guide for the Care and Handling of Laboratory Animals (NIH Publication No. 85-23) that have been approved by the City of Hope Animal Care Committee. Male ZDF (fa/fa) and male Zucker lean (+/+; ZL) rats were obtained at the age of 5 weeks from Charles River Laboratories (Wilmington, Mass., USA). Animals were maintained with free access to Purina 5008 rat chow (Purina Mills, St Louis, Mo., USA) and tap water. All animals were individually housed in a controlled room with a 12 h dark-light cycle. At the age of 13 weeks, the animals were divided into the following groups: (1) ZL rats (n=6); (2) ZDF rats without treatment (n=6); and (3) ZDF rats treated with LR-90 at 50 mg/l in their drinking water (ZDF90, n=6). The dose of LR-90 was chosen after previous experiments with type 1 diabetic nephropathy. Food, water intake, body weight and blood glucose levels were monitored periodically. Systolic blood pressure was measured by tail-cuff plethysmography (CODA2 Blood Pressure System; Kent Scientific, Torrington, Conn., USA). Animals were killed at the age of 40 weeks by over-anaesthetisation with isoflurane and cardiac puncture. Blood samples were collected from each animal and transferred accordingly into heparinised vacutainer tubes; they were later centrifuged (1,500×g for 10 min at 4° C.) for plasma isolation. The kidneys were removed immediately, rinsed in PBS and weighed, after which specimens were snap-frozen in liquid nitrogen or fixed in 10% (vol./vol.) neutral buffered formalin for further biochemical and histological analyses. Plasma glucose, lipids and Nε-(carboxymethyl)lysine-AGE Plasma glucose was measured using a glucose analyzer (2300 STAT; YSI, Yellowsprings, Ohio, USA). Total plasma triacylglycerol and cholesterol concentrations were quantified using the Vitros 250 Chemistry System (Johnson & Johnson, Rochester, N.Y., USA). Nε-(Carboxymethyl)lysine (CML)-AGE was liberated from plasma proteins by acid hydrolysis and then measured by ion-pair reversed-phase liquid chromatography/tandem mass spectrometry as described previously.
Renal function was assessed by measuring urinary albumin and total protein excretion. Prior to killing, rats were housed in metabolism cages for 24 h urine collection. Urinary albumin was quantified using the Nephrat kit according to manufacturer's instructions. Total urinary protein was measured using a kit (DC Assay; Bio-Rad Laboratories, Hercules, Calif., USA).

[2] = test system: Zucker diabetic fatty (ZDF) rat; assay: Kidney lipid peroxidation (malondialdehyde, TBARS), Example 1; assay type: in vivo; settings: ZDF animals
Procedure: To assess lipid peroxidation in renal cortical homogenates, malondialdehyde, an end-product of lipid peroxidation, was measured as thiobarbituric acid reactive substances by calorimetric reaction as described. Reaction was carried in the presence of EDTA and antioxidant butylated hydroxytoluene, and the absorbance was measured at 532 nm (UV-1601; Shimadzu Scientific Instruments, Columbia, Md., USA). Hydrolysed 1,1,3,3-tetramethoxypropane was used as standard [prepared by incubating 10 mmol/l tetramethoxypropane with 1% (vol./vol.) H2SO4 for 2 h at room temperature]. Results are expressed as nanomole malondialdehyde per milligram protein.

[3] = test system: Zucker diabetic fatty rats (ZDF, fa/fa); assay: Kidney histology, gene and protein expression and lipid peroxidation (Example 2); assay type: in vivo, rat
Procedure: FIG. 9. Representative photomicrographs of immunohistochemicals stainings of kidney tissues. A. Periodic Acid-Metheamine Silver (PAMS); B, Masson'S Trichrome; C, AGE; and D, RAGE stainings of kidneys from lean, ZDF and LR-90 treated ZDF rats.
FIG. 10. mRNA expression of TGF-B1, CTGF, fibronectin and RAGE in the kidney cortex. Renal cortices from each treatment group were analyzed by for TGF-B1, CTGF, fibronectin and RAGE gene expression by RT-PCR. A. Representative gel profiles; B, Quantitative results of band densities. 18s/18 sII were used as internal controls.
FIG. 11. Protein expression of TGF-B1 and CTGF in the kidney cortex. Renal cortices from each treatment group were analyzed by for TGF-B1 and CTGF protein expression by Western blotting and immunostaining with specific antibodies. Representative gel profiles and densiitometric quantitation of protein bands. *P<0.01 vs. lean, **P<0.01 vs. ZDF
FIG. 12. Representative immunohistochemical staining for TGF-B1 and CTGF in the kidney cortex. Renal cortices from each treatment group were probed with specific antibodies against TGF-β1 and CTGF.
FIG. 13. Effect of LR-90 on kidney lipid peroxidaton. A. Kidney lipid peroxides were analyzed by measuring malondialdehyde (MDA) in tissue homogenates using the TBARS method. B. Correlation of lipid peroxidation with urinary albumin excretion rates. *P<0.05 vs. ZDF, **P<0.01 vs. ZDF.
The present Example presents the results of an investigation of the effects of LR-90, an inhibitor of AGE/ALE formation, in male Zucker diabetic fatty rats (ZDF, fa/fa) fed with Purina 5008 diet until 40 weeks of age, and their hetorozygous lean littermates (ZDF fa/+) as non-hyperglycemic controls. LR-90 at 50 mg/L of drinking water was given to a subgroup of ZDF rats after the rats developed spontaneous diabetes at 13 weeks of age. At 40 weeks of age, and before killing the animals, their weight was measured; HbA1c, plasma glucose, insulin, triglycerides, cholesterol, CRP and urinary albumin and creatinine concentrations were measured. After euthanizing all animals, organs such as the kidneys, eyeballs, liver, heart, aortae and pancreas were dissected and subjected to immunohistochemical staining, RT-PCR, Western blotting and microscopy.

[4] = ZDF rats, LR-90 50 mg/l in drinking water, at 40 weeks of age, mean ± SEM

## CC(C)(Oc1ccc(NC(=O)Nc2ccc(Cc3ccc(NC(=O)Nc4ccc(OC(C)(C)C(=O)O)cc4)c(Cl)c3)cc2Cl)cc1)C(=O)O [LR-90, methylene bis[4,4′-(2-chlorophenylureidophenoxyisobutyric acid)]]
[1]; [4]
  Mean Kidney Weights: 4.23 ± 0.27 g
  Relative Kidney Weights: 12.23 ± 0.78 g/kg
  Total Urinary Protein: 176.4 ± 43.3 mg/24 h
  Urinary Albumin: 25.8 ± 4.8 mg/24 h
  Urine Volume: 137 ± 24 mL/day
[1]; vs untreated ZDF rats, p<0.01
  prevention of increase in total urinary protein: 67%
[1]; vs untreated ZDF rats, p<0.05
  prevention of increase in urinary albumin: 42%
[2]
  reduction of kidney lipid peroxidation: ~40%
[3]; ZDF animals, MDA by TBARS, Example 2
  reduction of kidney lipid peroxidation: ~40%
[3]; kidney of ZDF rats, FIGS. 9a and b
  glomerulosclerosis, tubular degeneration and collagen deposition: prevented
[3]; kidney of ZDF rats, FIGS. 9c and d
  renal AGE and RAGE accumulation: reduced
[3]; kidneys of ZDF rats, FIGS. 10, 11 and 12
  TGF-β1 and CTGF gene and protein expression, fibronectin and RAGE mRNA: significantly attenuated
